{
  "source": "paper PMC10600239",
  "about": "“Selective MCL-1 inhibitor ABBV-467 is efficacious in tumor models but is associated with cardiac troponin increases in patients” (Communications Medicine, 2023)",
  "key": {"Kv11.1 (hERG)": {"biological_target": "Kv11.1 (hERG) (Homo sapiens, UniProt Q12809)", "sequence (Q12809 whole entry)": "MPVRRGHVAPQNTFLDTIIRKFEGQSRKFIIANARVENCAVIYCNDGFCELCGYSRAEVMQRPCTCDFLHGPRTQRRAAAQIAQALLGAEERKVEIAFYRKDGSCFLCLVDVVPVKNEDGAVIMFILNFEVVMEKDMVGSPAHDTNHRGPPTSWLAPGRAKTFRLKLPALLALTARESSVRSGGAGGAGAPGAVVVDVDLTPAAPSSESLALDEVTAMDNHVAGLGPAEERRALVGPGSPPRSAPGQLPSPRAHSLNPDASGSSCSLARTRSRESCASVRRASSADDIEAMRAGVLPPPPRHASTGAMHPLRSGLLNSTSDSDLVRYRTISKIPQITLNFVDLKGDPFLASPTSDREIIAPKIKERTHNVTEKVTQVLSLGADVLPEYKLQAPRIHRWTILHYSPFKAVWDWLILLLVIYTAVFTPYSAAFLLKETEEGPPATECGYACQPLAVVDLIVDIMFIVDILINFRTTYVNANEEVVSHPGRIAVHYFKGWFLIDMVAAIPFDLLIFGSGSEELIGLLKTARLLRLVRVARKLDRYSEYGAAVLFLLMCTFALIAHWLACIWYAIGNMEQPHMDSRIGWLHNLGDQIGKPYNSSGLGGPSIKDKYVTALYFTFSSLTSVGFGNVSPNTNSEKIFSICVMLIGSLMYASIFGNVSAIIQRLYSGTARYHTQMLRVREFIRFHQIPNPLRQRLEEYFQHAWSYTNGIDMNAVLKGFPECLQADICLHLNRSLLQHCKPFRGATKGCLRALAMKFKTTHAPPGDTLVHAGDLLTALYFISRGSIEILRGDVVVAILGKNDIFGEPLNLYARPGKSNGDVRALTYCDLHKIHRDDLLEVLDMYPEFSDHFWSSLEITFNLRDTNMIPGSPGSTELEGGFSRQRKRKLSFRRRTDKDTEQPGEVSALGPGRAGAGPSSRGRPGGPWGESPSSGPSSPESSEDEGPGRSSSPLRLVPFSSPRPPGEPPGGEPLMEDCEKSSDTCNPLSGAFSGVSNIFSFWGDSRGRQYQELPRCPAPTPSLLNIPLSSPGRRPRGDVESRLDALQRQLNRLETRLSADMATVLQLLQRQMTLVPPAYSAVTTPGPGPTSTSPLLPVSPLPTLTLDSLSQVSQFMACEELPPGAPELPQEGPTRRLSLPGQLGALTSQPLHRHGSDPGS", "test": "in vitro", "conditions": "CHO cells expressing human Kv11.1 (hERG)"}, "H929 cells [1]": {"system": "H929 cells", "test": "Caspase-3/7 activation, Δψm and annexin-V positivity by flow cytometry", "format": "cell-based, human", "set-up": "MMP / H929 zVAD Fig 2C: unit not given here", "conditions": "for Caspase-3/-7 Activation / MMP / H929 zVAD Fig 2C: H929; for Caspase-3/-7 Activation: Fig 2A; for MMP: Fig 2B", "procedure": "H929 cells cultured in RPMI 1640 medium (Sigma, St. Louis, MO) supplemented with 10% fetal bovine serum (Gibco, Grand Island, NY) were pretreated with a pan-caspase inhibitor z-VAD-fmk (MP Biomedicals, Solon, OH; 50 µM) for 1 h before the addition of ABBV-467 for a further 6 h. Cells were then washed twice with Dulbecco’s phosphate-buffered saline and resuspended in staining buffer for determination of caspase-3/7 activation, Δψm, and annexin-V positivity using the Intellicyt MultiCyt 4-Plex Kit and high-content flow cytometry (Intellicyt, Albuquerque, NM)."}, "H929 cells [2]": {"system": "H929 cells", "test": "Caspase-3/7 activation and viability (DRAQ7) over time by Incucyte", "format": "cell-based, human", "procedure": "Fig. 2 Apoptosis induced by ABBV-467 is mechanism based and induces cell death in MCL-1-dependent cell lines after short target engagement periods. H929 cells were treated with ABBV-467 in the presence or absence of the pan-caspase inhibitor z-VAD-fmk (50 µM) and the impact on caspase-3/7 activation (a), mitochondrial membrane potential (ΔΨm; b), and apoptosis (c) determined. Alternatively, BAK-deficient SKBR3 cells were treated with ABBV-467 for 24 h and the impact on cell viability compared with the parental cell line, determined by CellTiter-Glo. Inset depicts a western blot of BAK and BAX expression in SKBR3 cell variants using GAPDH as a loading control. Each of the 3 proteins were probed on separate blots (d). Data in (a–d) are presented as the mean ± standard error of the mean. H929 and AMO-1 cells were treated with ABBV-467 at the indicated concentrations and the impact on caspase-3/7 activation and viability (DRAQ7-positive) cells determined over time by Incucyte®. Data are presented as the mean ± standard deviation (e). H929 or AMO-1 cells were cultured in media containing 10% human serum and treated with ABBV-467 for the indicated contact times. Cells were subsequently washed 3 times with drug-free media and incubated in drug-free media for the remainder of the 24-h treatment period at 37 °C before cell viability was determined by CellTiter-Glo. Mean EC50 and EC90 values were determined from the resulting dose-response curves from at least 3 independent experiments, each assessed in quadruplicate, and depict the mean ± standard error of the mean. Presented ABBV-467 dose-response curves in H929 and AMO-1 cells were compiled from at least 3 independent experiments (f)."}},
  "note": "“And” between values parts separate entries of the source, which are not always exact repeats. Equal entries are not always repeated.",
  "data": [
    {"smiles": "Cc1c(Cl)c2c(Cl)c(C)c1-c1c(-c3ccc(F)cc3)sc3ncnc(c13)O[C@@H](C(=O)O)Cc1cc(ccc1OCc1ccnc(-c3ccc(OC[C@H]4COCCO4)cc3)n1)OC[C@@H](CN1CCN(C)CC1)O2", "note": "[ABBV-467]", "values": [
      {"measurement": "IC50", "setting": "Kv11.1 (hERG)", "result": "> 30", "unit": "µM"},
      {"measurement": "Caspase-3/-7 Activation", "setting": "H929 cells [1]; Log [ABBV-467] uM 0.045757", "result": "53.8099 and 53.0567 and 99.0546 and 98.9774"},
      {"measurement": "Caspase-3/-7 Activation", "setting": "H929 cells [1]; Log [ABBV-467] uM 0.522879", "result": "56.0913 and 57.1822 and 99.1897 and 99.0858"},
      {"measurement": "Caspase-3/-7 Activation", "setting": "H929 cells [1]; Log [ABBV-467] uM 1", "result": "64.5099 and 63.3101 and 99.1237 and 99.059"},
      {"measurement": "MMP", "setting": "H929 cells [1]; Log [ABBV-467] uM 1", "result": 45.9293},
      {"measurement": "Caspase-3/-7 Activation", "setting": "H929 cells [1]; Log [ABBV-467] uM -0.43136", "result": "50.714 and 51.6373 and 98.7601 and 98.6341"},
      {"measurement": "MMP", "setting": "H929 cells [1]; Log [ABBV-467] uM -0.90849", "result": 38.9227},
      {"measurement": "Caspase-3/-7 Activation", "setting": "H929 cells [1]; Log [ABBV-467] uM -1.86273", "result": "33.5112 and 33.8695 and 61.3327 and 57.2365"},
      {"measurement": "MMP", "setting": "H929 cells [1]; Log [ABBV-467] uM -1.86273", "result": "31.9106 and 36.0956 and 42.4956 and 39.7476"},
      {"measurement": "Caspase-3/-7 Activation", "setting": "H929 cells [1]; Log [ABBV-467] uM -2.33985", "result": "30.5735 and 30.5502 and 33.1767 and 32.117"},
      {"measurement": "MMP", "setting": "H929 cells [1]; Log [ABBV-467] uM -2.81697", "result": 29.9048},
      {"measurement": "H929 zVAD Fig 2C", "setting": "H929 cells [1]; Vehicle, Log [ABBV-467] uM 0.522879", "result": "78.4582 and 79.5333 and 93.9539 and 93.9739"},
      {"measurement": "H929 zVAD Fig 2C", "setting": "H929 cells [1]; Vehicle, Log [ABBV-467] uM 1", "result": "82.31 and 82.4987 and 93.6098 and 94.0208"},
      {"measurement": "H929 zVAD Fig 2C", "setting": "H929 cells [1]; Vehicle, Log [ABBV-467] uM -0.90849", "result": "61.8581 and 57.4223 and 88.7815 and 89.1451"},
      {"measurement": "H929 zVAD Fig 2C", "setting": "H929 cells [1]; Vehicle, Log [ABBV-467] uM -1.86273", "result": "33.1301 and 34.5804 and 48.8387 and 44.3698"},
      {"measurement": "H929 zVAD Fig 2C", "setting": "H929 cells [1]; Vehicle, Log [ABBV-467] uM -2.81697", "result": 10.2236},
      {"measurement": "H929 zVAD Fig 2C", "setting": "H929 cells [1]; z-VAD-fmk, Log [ABBV-467] uM 0.045757", "result": 25.2697},
      {"measurement": "H929 zVAD Fig 2C", "setting": "H929 cells [1]; z-VAD-fmk, Log [ABBV-467] uM 1", "result": "9.553 and 7.075"},
      {"measurement": "H929 zVAD Fig 2C", "setting": "H929 cells [1]; z-VAD-fmk, Log [ABBV-467] uM -0.43136", "result": 25.945},
      {"measurement": "H929 zVAD Fig 2C", "setting": "H929 cells [1]; z-VAD-fmk, Log [ABBV-467] uM -1.38561", "result": 25.2659},
      {"measurement": "H929 zVAD Fig 2C", "setting": "H929 cells [1]; z-VAD-fmk, Log [ABBV-467] uM -1.86273", "result": 25.2352},
      {"measurement": "H929 zVAD Fig 2C", "setting": "H929 cells [1]; z-VAD-fmk, Log [ABBV-467] uM -2.33985", "result": 25.2036},
      {"measurement": "hallmarks of apoptosis induced", "setting": "H929 cells [1]; H929 cells, 6 h", "result": "dose-dependent loss in mitochondrial membrane potential, caspase-3/7 activation, and phosphatidyl serine externalization"},
      {"measurement": "effect of pan-caspase inhibition with z-VAD-fmk on induced apoptosis", "setting": "H929 cells [1]; z-VAD-fmk 50 µM", "result": "abrogated"},
      {"measurement": "Caspase-3/-7 Activation", "setting": "H929 cells [2]; ABBV-467 0.01 nM, 0 hours", "result": 232.365},
      {"measurement": "Caspase-3/-7 Activation", "setting": "H929 cells [2]; ABBV-467 0.01 nM, 1 hours", "result": 224.632},
      {"measurement": "Caspase-3/-7 Activation", "setting": "H929 cells [2]; ABBV-467 0.01 nM, 2 hours", "result": 270.553},
      {"measurement": "Caspase-3/-7 Activation", "setting": "H929 cells [2]; ABBV-467 0.01 nM, 3 hours", "result": 259.728},
      {"measurement": "Caspase-3/-7 Activation", "setting": "H929 cells [2]; ABBV-467 0.01 nM, 4 hours", "result": 277.62},
      {"measurement": "Caspase-3/-7 Activation", "setting": "H929 cells [2]; ABBV-467 0.01 nM, 5 hours", "result": 289.07},
      {"measurement": "Caspase-3/-7 Activation", "setting": "H929 cells [2]; ABBV-467 0.01 nM, 6 hours", "result": 301.552},
      {"measurement": "Caspase-3/-7 Activation", "setting": "H929 cells [2]; ABBV-467 0.01 nM, 7 hours", "result": 311.821},
      {"measurement": "Caspase-3/-7 Activation", "setting": "H929 cells [2]; ABBV-467 0.01 nM, 8 hours", "result": 334.669},
      {"measurement": "Caspase-3/-7 Activation", "setting": "H929 cells [2]; ABBV-467 0.01 nM, 9 hours", "result": 348.392},
      {"measurement": "Caspase-3/-7 Activation", "setting": "H929 cells [2]; ABBV-467 0.01 nM, 10 hours", "result": 365.28},
      {"measurement": "Caspase-3/-7 Activation", "setting": "H929 cells [2]; ABBV-467 0.01 nM, 11 hours", "result": 391.805},
      {"measurement": "Caspase-3/-7 Activation", "setting": "H929 cells [2]; ABBV-467 0.01 nM, 12 hours", "result": 438.261},
      {"measurement": "Caspase-3/-7 Activation", "setting": "H929 cells [2]; ABBV-467 0.01 nM, 13 hours", "result": 454.339},
      {"measurement": "Caspase-3/-7 Activation", "setting": "H929 cells [2]; ABBV-467 0.01 nM, 14 hours", "result": 484.741},
      {"measurement": "Caspase-3/-7 Activation", "setting": "H929 cells [2]; ABBV-467 0.1 nM, 0 hours", "result": 225.588},
      {"measurement": "Caspase-3/-7 Activation", "setting": "H929 cells [2]; ABBV-467 0.1 nM, 1 hours", "result": 235.59},
      {"measurement": "Caspase-3/-7 Activation", "setting": "H929 cells [2]; ABBV-467 0.1 nM, 2 hours", "result": 274.692},
      {"measurement": "Caspase-3/-7 Activation", "setting": "H929 cells [2]; ABBV-467 0.1 nM, 3 hours", "result": 258.216},
      {"measurement": "Caspase-3/-7 Activation", "setting": "H929 cells [2]; ABBV-467 0.1 nM, 4 hours", "result": 255.874},
      {"measurement": "Caspase-3/-7 Activation", "setting": "H929 cells [2]; ABBV-467 0.1 nM, 5 hours", "result": 269.765},
      {"measurement": "Caspase-3/-7 Activation", "setting": "H929 cells [2]; ABBV-467 0.1 nM, 6 hours", "result": 277.457},
      {"measurement": "Caspase-3/-7 Activation", "setting": "H929 cells [2]; ABBV-467 0.1 nM, 7 hours", "result": 313.21},
      {"measurement": "Caspase-3/-7 Activation", "setting": "H929 cells [2]; ABBV-467 0.1 nM, 8 hours", "result": 322.526},
      {"measurement": "Caspase-3/-7 Activation", "setting": "H929 cells [2]; ABBV-467 0.1 nM, 9 hours", "result": 349.891},
      {"measurement": "Caspase-3/-7 Activation", "setting": "H929 cells [2]; ABBV-467 0.1 nM, 10 hours", "result": 382.789}
    ]}
  ]
}
